# Test results published in PubChem BioAssay AID463199 (Broad Institute, 2010).
# The source made the active and inactive calls.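 Rule for the calls: active = AC50, the dose giving half-maximal effect, exceeds a fixed cutoff for a compound that rescues yeast growth under heat; inactive = the rest, inconclusive results apart.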
# Test system: S. cerevisiae Burl-1 ts mutant growth, BacTiter-Glo, 38.5C 24 h
# Assay: restored growth of temperature-sensitive Burl-1 yeast – whole organism, S. cerevisiae, Burl-1 ts mutant, luminescence, counter-screen for SUMOylation pathway inhibitor project, dose response (AID 463199)
row,Structure (SMILES),AC50
1,Cc1[nH]nc2c1C(c1cccs1)C1=C(CC(C)(C)CC1=O)N2 (stereo not drawn),> 42 µM (inactive)
2,c1ccc(-c2csc(N3CCN(c4ccccn4)CC3)n2)cc1,> 42 µM (inactive)
3,Cc1c(C(=O)NC(C)c2ccc(-n3ccnc3)cc2)cccc1[N+](=O)[O-] (stereo not drawn),> 42 µM (inactive)
4,O=C(CS(=O)c1ccc(C(F)(F)F)cc1[N+](=O)[O-])Oc1ccc(Cl)cc1 (stereo not drawn),> 42 µM (inactive)
5,N#C/C(=C\c1cc([N+](=O)[O-])c(N2CCOCC2)cc1N1CCOCC1)c1nc2ccccc2[nH]1,> 42 µM (inactive)
6,COc1ccc(NC(=O)CN(c2ccc(C(C)C)cc2)S(=O)(=O)c2c(C)noc2C)cc1OC,> 42 µM (inactive)
7,O=C(COC(=O)c1ccc([N+](=O)[O-])o1)Nc1ncc(Cl)cc1Cl,> 42 µM (inactive)
8,CCc1ccc(-n2c(Cc3ccccc3)n[nH]c2=S)cc1,> 42 µM (inactive)
9,COc1ccc(-c2csc(NC(=O)C3CSC4(C)CCC(=O)N34)n2)cc1 (stereo not drawn),> 42 µM (inactive)
10,C/C=C\C=C/C(=O)Nc1cccc(C2=NOC3(C2)C[C@@H](C(N)=O)N(C(=O)c2ccccc2)C3)c1 (stereo partly drawn),> 42 µM (inactive)
11,CC(C)C(=O)Nc1ccc(NC(=S)NC(=O)c2ccccc2F)cc1,> 42 µM (inactive)
12,COCCn1c(N)c(N(Cc2ccccc2)C(=O)CN2C(=O)NC(C)(c3ccccc3)C2=O)c(=O)[nH]c1=O (stereo not drawn),39.8 µM
13,COc1cc(OC)cc(OC(=O)c2ccc3c(=O)n4c(nc3c2)CCC4)c1,> 42 µM (inactive)
14,COc1ccc(-c2nnc(-c3cc4c(ccc5ccccc54)oc3=O)o2)cc1,> 42 µM (inactive)
15,Cc1cccc(N2C(=O)CSC2c2cccnc2)c1 (stereo not drawn),> 42 µM (inactive)
16,CN=C(Nc1cccnc1)c1ccccc1,> 42 µM (inactive)
17,CCOC(=O)c1ccc(CNC(=O)Cn2nnc(-c3ccc(C)cc3)n2)o1,> 42 µM (inactive)
18,Cc1ccc2cccc(OCc3nnc(SCC(=O)O)n3C)c2n1,> 42 µM (inactive)
19,O=C(COc1ccccc1)NCCS(=O)(=O)N1CCN(c2ccccc2)CC1,> 42 µM (inactive)
20,O=C(CN1C(=O)NC2(CCCC2)C1=O)Nc1nc2ccccc2[nH]1,> 42 µM (inactive)
21,[N-]=[N+]=NCCN1CCC(O)CCC1=O (stereo not drawn),> 42 µM (inactive)
22,CC1=Nc2ccccc2/C1=C\c1nc(-c2ccccc2)oc1O,> 42 µM (inactive)
23,CC1CCCCN1C(=O)C(Cc1ccccc1)N1C(=O)C2CCCCC2C1=O (stereo not drawn),> 42 µM (inactive)
24,CSc1ncc2ncn(C3OC(CO)C(O)C3O)c2n1 (stereo not drawn),> 42 µM (inactive)
25,O=C(Cc1cccs1)N1CCCC(c2nc3c(nnn3Cc3ccc(F)cc3)c(=O)[nH]2)C1 (stereo not drawn),> 42 µM (inactive)

row,Structure (SMILES),AC50
1,c1ccc(-c2cc3ccccc3cn2)cc1,> 42 µM (inactive)
2,CCCCC(=O)N/N=C(\C)CC(=O)Nc1cc(Cl)ccc1OC,> 42 µM (inactive)
3,CC(=Nc1ccccc1)C1=C(O)CC(C)(C)CC1=O,> 42 µM (inactive)
4,Cc1cc(C)cc(OC(=O)CS(=O)c2ccc(C(F)(F)F)cc2[N+](=O)[O-])c1 (stereo not drawn),> 42 µM (inactive)
5,CCCC(O)(CCC)C(=O)NNc1ccc(C)cc1,> 42 µM (inactive)
6,CCOc1ccc(S(=O)(=O)N2CCN(CC(O)COc3cccc([N+](=O)[O-])c3)CC2)cc1 (stereo not drawn),> 42 µM (inactive)
7,CC(=O)NCCc1nc2cc(NC(=O)c3ccc(F)cc3)ccc2n1C,> 42 µM (inactive)
8,CCC(C)(C)n1nnnc1C(c1ccc(OC)c(OC)c1)N1CCN(c2cccc(OC)c2)CC1 (stereo not drawn),> 42 µM (inactive)
9,O=C(CSc1cccc2cccnc12)Nc1cc(C(=O)O)cc(C(=O)O)c1,> 42 µM (inactive)
10,CCCCOc1ccc(C(=O)Nc2ccc(N3CCN(C)CC3)cc2)cc1,> 42 µM (inactive)
11,Cc1cc(NC(=O)CCC(=O)N(c2cccnc2)C(C(=O)NC2CCCC2)c2ccccc2)no1 (stereo not drawn),> 42 µM (inactive)
12,CC1=C(C(N)=O)C(c2ccccn2)n2nc(SCc3ccccc3Cl)nc2N1 (stereo not drawn),> 42 µM (inactive)
13,COc1ccc(C(=O)CC(=O)C(=O)Nc2ccc(C)c(C)c2)cc1,> 42 µM (inactive)
14,CCN1C(=S)N[C@@H](c2cccs2)C(C(=O)OC)=C1C,> 42 µM (inactive)
15,COc1ccccc1N1CCN(C(=O)c2sc3ncnc(N4CCN(c5ccccn5)CC4)c3c2C)CC1,> 42 µM (inactive)
16,Cc1ccc(S(=O)(=O)CCC(=O)OCC(=O)N(C)C2CCS(=O)(=O)C2)cc1 (stereo not drawn),> 42 µM (inactive)
17,CCOC(=O)C1CCN(Cc2ccc(OCc3ccccc3)cc2)CC1,> 42 µM (inactive)
18,COc1cc(CNCCN2CCOCC2)ccc1OCc1ccccc1Cl,> 42 µM (inactive)
19,CN(C)CCCN(Cc1ccccc1)C(=S)Nc1ccc(F)c(Cl)c1,> 42 µM (inactive)
20,O=[N+]([O-])c1cccc(-c2nc3ccc([N+](=O)[O-])cc3[nH]2)c1,> 42 µM (inactive)
21,CN(C)S(=O)(=O)c1cccc(NC(=O)C(c2ccccc2)c2ccccc2)c1,> 42 µM (inactive)
22,O=S(=O)(NCc1ccccc1)c1ccc(S(=O)(=O)N(Cc2ccccn2)Cc2ccco2)cc1,16.7 µM
23,COc1cc(NC(=O)c2ccccc2F)c(OC)cc1NC(=O)CN1CCCCC1,> 42 µM (inactive)
24,CCOc1ccc(NC(=O)C2CC(=O)N3CCCN=C3S2)cc1 (stereo not drawn),> 42 µM (inactive)
25,O=C(CCCn1cnc([N+](=O)[O-])n1)Nc1cccc2ccccc12,> 42 µM (inactive)

row,Structure (SMILES),AC50
1,COc1ccccc1/C=C/C(=O)NC(=S)N1CCOCC1,> 42 µM (inactive)
2,COc1ccc(C(=O)CSc2nnc3ccc(-c4ccccn4)nn23)cc1,> 42 µM (inactive)
3,COc1ccccc1NC(=O)NCCc1c[nH]c2ccccc12,> 42 µM (inactive)
4,CN(C)C1(c2nnnn2-c2ccc(Cl)cc2)CCCCC1,> 42 µM (inactive)
5,CCOc1ccc(CN(C)C(C)C(=O)NCc2ccccc2)cc1 (stereo not drawn),> 42 µM (inactive)
6,Cc1cccc(OCc2nnc(SCC(=O)N3c4ccccc4CC3C)n2C)c1C (stereo not drawn),> 42 µM (inactive)
7,Cc1n[nH]c(=O)c2c(NC(=O)COC(=O)Cc3ccc(Cl)cc3Cl)oc(C)c12,> 21 µM (inactive)
8,CCOC(=O)c1ccc(NC(=S)NCCCN2CCOCC2)cc1,> 42 µM (inactive)
9,CCN(CC)CCCn1c(=S)[nH]c2ccc(Cl)cc2c1=O,38.6 µM
10,Cc1ccc(/C=C2\SC(N3CCCC3)=NC2=O)cc1,> 42 µM (inactive)
11,Cc1cccc(C)c1NS(=O)(=O)c1ccc(OCCNS(C)(=O)=O)cc1,> 42 µM (inactive)
12,COc1ccccc1N1C(=O)c2ccccc2NC1C(OC)OC (stereo not drawn),> 42 µM (inactive)
13,COc1ccc(CCNC(=O)c2cc(-c3ccco3)on2)cc1OC,> 42 µM (inactive)
14,CCOP(=O)(OCC)c1cc(CC)ccc1O,> 42 µM (inactive)
15,Cc1cc(C)c(OCC(=O)N/N=C/c2ccco2)c(C)c1,> 42 µM (inactive)
16,Cc1ccc(CN(C)C(=O)c2ccc3c(c2)NC(=O)CS3)o1,> 42 µM (inactive)
17,Nc1ccc(NC(=O)c2ccco2)c(Cl)c1,> 42 µM (inactive)
18,Cn1c(O)c(C(c2ccccn2)c2c(O)n(C)c(=S)n(C)c2=O)c(=O)n(C)c1=S,> 42 µM (inactive)
19,O=C(Nc1ccc2ccccc2c1)N1CCCN(CCOc2ccccc2)CC1,> 42 µM (inactive)
20,O=C1CC(N(CCc2ccccc2)C(=S)Nc2ccccc2)C(=O)N1c1ccc(F)cc1 (stereo not drawn),> 42 µM (inactive)
21,COc1ccccc1N1CCN(C(=O)c2ccc(N3CCCCS3(=O)=O)cc2)CC1,> 42 µM (inactive)
22,CCOc1ccc(C(=O)Nc2ccc(C(F)(F)F)n(C)c2=O)cc1,> 42 µM (inactive)
23,CCOC(=O)C(C)(C)Sc1nc2c(cnn2-c2ccc(C)cc2)c(=O)[nH]1,> 42 µM (inactive)
24,COc1cccc(-c2nn(-c3ccccc3)cc2/C=C(/NC(=O)c2ccccc2)C(=O)O)c1,> 42 µM (inactive)
25,CCC(c1nc2ccccc2c(=O)n1-c1nc2ccccc2s1)N1C(=O)c2ccccc2C1=O (stereo not drawn),> 42 µM (inactive)

row,Structure (SMILES),AC50
1,CC1CCCC(C)N1C(=O)CSc1nnnn1-c1cccc2c1CCCC2 (stereo not drawn),> 42 µM (inactive)
2,Fc1ccc(-c2n[nH]c(=S)n2CC2CCCO2)cc1 (stereo not drawn),> 42 µM (inactive)
3,Cc1ccc(SCCC(=O)Nc2ccc(OCc3ccccc3)cc2)cc1,> 42 µM (inactive)
4,CCc1nnc(NC(=O)CSc2ccc(-c3ccc(-n4cccn4)cc3)nn2)s1,> 42 µM (inactive)
5,CC1(C)CCc2cc(CN3CCN(c4ccccn4)CC3)ccc2O1,> 42 µM (inactive)
6,C=CCSc1nnc2c(n1)[nH]c1c(C)cccc12,> 42 µM (inactive)
7,Cc1cc(C)cc(C(=O)NC(CC(N)=O)c2ccc(NCCN3CCOCC3)c([N+](=O)[O-])c2)c1 (stereo not drawn),> 42 µM (inactive)
8,O=C(COc1cccnc1[N+](=O)[O-])Nc1ccc2c(c1)CCC2,> 21 µM (inactive)
9,Cc1cc(C)cc(OCC(=O)Nc2ccc(N3CCN(C(=O)c4ccco4)CC3)cc2)c1,> 42 µM (inactive)
10,COc1ccc(CN2CC(=O)N(c3ccccc3C)C2=S)cc1OC,> 42 µM (inactive)
11,O=C1CCc2cc(S(=O)(=O)N3CCC(C(=O)NC4CCCC4)CC3)ccc2N1,> 42 µM (inactive)
12,c1ccc2nc3c(nc2c1)OCC1CCCCN31 (stereo not drawn),> 42 µM (inactive)
13,CNc1csc(C)c(C)c1=O,> 42 µM (inactive)
14,Cc1cccc(N=Nc2ccc(N(C)C)cc2)c1,> 42 µM (inactive)
15,CCN(CC)c1ccc(N=Cc2c(O)n(Cc3ccccc3)c(=O)[nH]c2=O)cc1,> 42 µM (inactive)
16,CCCC(=O)NC(C)c1nc2ccccc2[nH]1 (stereo not drawn),> 42 µM (inactive)
17,N#CC(CC(=O)c1ccc(F)cc1)c1ccc2c(c1)OCO2 (stereo not drawn),> 42 µM (inactive)
18,COc1ccc(NC(=O)c2ccc(S(=O)(=O)N(C)c3ccccc3)cc2)cn1,> 42 µM (inactive)
19,Cc1ccc(S(=O)(=O)N2[C@@H](c3ccc(Br)cc3)C(C(=O)O)=C[C@H]2CC2CCCC2)cc1,> 42 µM (inactive)
20,Cc1ccc2c(c1)N(CC(=O)NCCCN1CCN(C)CC1)C(=O)CO2,> 42 µM (inactive)
21,CCN1CSC(=S)N(Cc2ccc(OC)cc2)C1,7.78 µM
22,CC(=O)Nc1cccc(OCC(O)Cn2c(C)nc3ccccc32)c1 (stereo not drawn),> 42 µM (inactive)
23,S=c1[nH]nc(-c2ccco2)n1-c1ccc(Br)cc1,> 42 µM (inactive)
